Article PMC6983058, “Biologically Active Echinulin-Related Indolediketopiperazines from the Marine Sediment-Derived Fungus Aspergillus niveoglaucus” (Molecules, 2019)
“Also recorded” adds a separate entry of the source. Where two headings read alike, the source gives them in different places.

What was measured:
[1] = DPPH-radical scavenger assay (cell-free); type: biochemical; conditions: MeOH, 30 min
Protocol: The DPPH radical scavenging activities of the compounds were tested as described.
The compounds were dissolved in MeOH, and the solutions (120 µL) were dispensed into wells of a 96-well microplate. In all, 30 µL of the DPPH (Sigma-Aldrich, Steinheim, Germany) solution in MeOH (7.5 × 10^−3 M) was added to each well. The concentrations of the test compounds in the mixtures were 10 and 100 µM. The mixtures were shaken and left to stand for 30 min, and the absorbance of the resulting solutions was measured at 520 nm with a microplate reader MultiscanFC (ThermoScientific, Waltham, MA, USA). The radical scavenging activities of the compounds at 100 µM are presented as % relative to the control (MeOH alone), and the concentration scavenging 50% of the DPPH radical (EC50) was calculated for each compound.

[2] = system: Neuro-2a cells; assay: 6-OHDA-induced cell model of Parkinson's disease (viability, MTT); type: cell-based, murine; conditions: 10 µM compound 1 h pretreatment, 6-OHDA 50 µM, 24 h
[3] = MTT cytotoxicity assay, Neuro-2a cells; conditions: mouse
Protocol: (§3) Neuro-2a cells were cultured in DMEM medium containing 10% fetal bovine serum (Biolot, St. Petersburg, Russia) and 1% penicillin/streptomycin (Invitrogen, Carlsbad, CA, USA). Cells were incubated at 37 °C in a humidified atmosphere containing 5% (v/v) CO2 [43].
(§4) The in vitro cytotoxicities of the individual substances were evaluated using an MTT (3-(4,5-dimethylthiazol-2-yl)-2,5-diphenyltetrazolium bromide) assay, which was performed according to the manufacturer’s instructions (Sigma-Aldrich, St. Louis, MO, USA). […] Docetaxel was used as a reference substance.

[4] = system: Neuro-2a cells; assay: Rotenone-induced cell model of Parkinson's disease (viability, MTT); conditions: 10 µM compound 1 h pretreatment, rotenone 10 µM, 24 h
Protocol: (§5) Neuroblastoma Neuro-2a line cells (1 × 10^4 cells/well) were treated with the test compounds at concentrations of 10 µM for 1 h, and then the neurotoxins at different concentrations were added to the neuroblastoma cell suspensions [40]. Rotenone (Sigma-Aldrich, USA) was used at 10 µM. Paraquat (Sigma-Aldrich, USA) was used at 500 µM. […] Cells incubated without neurotoxins and the test compounds and cells incubated with neurotoxins only were used as positive and negative controls, respectively. After 24 h of incubation, the cell viabilities were measured using the MTT method.

[5] = system: Neuro-2a cells; assay: Paraquat-induced cell model of Parkinson's disease (viability, MTT); conditions: 10 µM compound 1 h pretreatment, paraquat 500 µM, 24 h
Protocol: as §5

[6] = cell-free, cited from earlier work; for IC50: read-out: DPPH Scavenger Activity IC50
[7] = MTT cytotoxicity assay, 22Rv1 cells; type: cell-based; conditions: human
Protocol: (§1) 22Rv1, PC-3, and LNCaP cell lines were cultured according to the manufacturer’s instructions in 10% FBS/RPMI media (Invitrogen, Carlsbad, CA, USA). Cells were continuously kept in culture for a maximum of 3 months and were routinely inspected microscopically for stable phenotypes and regularly checked for contamination with mycoplasma. Cell line authentication was performed by DSMZ (Braunschweig, Germany) using highly polymorphic short tandem repeat loci.
(§2) Docetaxel was used as a reference substance.

[8] = MTT cytotoxicity assay, PC-3 cells; type: cell-based; conditions: human
Protocol: as §1, §2

[9] = MTT cytotoxicity assay, LNCaP cells; type: cell-based; conditions: human
Protocol: as §1, §2

[10] = system: Neuro-2a cells; assay: ROS level in paraquat-treated Neuro-2a cells (H2DCF-DA); type: cell-based, murine; conditions: 10 µM compound 1 h, then paraquat 500 µM 1 h; neurotoxin alone 148.4 ± 6.9
Protocol: Cell suspensions (1×10^4 cells/well) were incubated with solutions of the test compound (10 µM) for 1 h. Then, 6-hydroxydopamine solution (Sigma-Aldrich, 50 µM) or paraquat solution (Sigma-Aldrich, 500 µM) were added to each well. After 30 min (for 6-hydroxydopamine) or 1 h (for paraquat), 20 μL of 2,7-dichlorodihydrofluorescein diacetate (H2DCF-DA) solution (Molecular Probes, final concentration […]) was added to each well, and the microplate was incubated for an additional 10 min at 37 °C. The intensity of dichlorofluorescin fluorescence was measured at λex = 485 nm and λem = 518 nm. The results are presented as % relative to the control.

[11] = target: T1, urease from Canavalia ensiformis (Canavalia ensiformis, UniProt P07374); assay: Cell-free urease inhibition assay (indophenol method); type: biochemical
T1 construct: purchased Sigma
T1 sequence (P07374 whole entry, looked up): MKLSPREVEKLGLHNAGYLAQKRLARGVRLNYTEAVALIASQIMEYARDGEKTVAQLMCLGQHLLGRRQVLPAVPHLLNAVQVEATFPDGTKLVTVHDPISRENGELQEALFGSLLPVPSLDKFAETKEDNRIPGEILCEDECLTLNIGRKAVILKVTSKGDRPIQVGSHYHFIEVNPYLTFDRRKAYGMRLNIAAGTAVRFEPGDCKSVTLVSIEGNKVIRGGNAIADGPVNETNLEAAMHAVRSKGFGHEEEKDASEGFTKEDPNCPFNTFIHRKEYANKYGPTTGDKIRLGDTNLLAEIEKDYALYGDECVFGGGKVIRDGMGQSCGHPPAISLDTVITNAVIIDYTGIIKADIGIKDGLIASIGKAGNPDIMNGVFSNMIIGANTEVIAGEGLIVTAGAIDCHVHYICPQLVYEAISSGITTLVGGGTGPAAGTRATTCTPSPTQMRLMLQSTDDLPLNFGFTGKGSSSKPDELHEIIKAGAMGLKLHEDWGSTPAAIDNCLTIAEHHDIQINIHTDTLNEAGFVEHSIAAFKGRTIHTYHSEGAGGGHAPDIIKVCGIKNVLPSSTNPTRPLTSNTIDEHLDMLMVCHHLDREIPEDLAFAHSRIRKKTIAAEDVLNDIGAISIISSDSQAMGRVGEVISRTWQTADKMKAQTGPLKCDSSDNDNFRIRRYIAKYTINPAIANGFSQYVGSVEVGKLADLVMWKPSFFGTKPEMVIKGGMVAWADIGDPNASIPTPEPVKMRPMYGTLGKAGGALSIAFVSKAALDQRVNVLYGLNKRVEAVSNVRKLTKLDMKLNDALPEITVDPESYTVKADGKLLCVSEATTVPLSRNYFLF

[12] = system: Staphylococcus aureus; design: method as in Du et al. (supplement ref 5); conditions: ref Du et al. (supplement ref 5); cited from earlier work
[13] = system: RAW264.7 cells; conditions: murine macrophage RAW264.7; potency similar to that in Neuro-2a; cited from earlier work
[14] = in vitro; conditions: mouse
Protocol: as §3, §4

Row | SMILES | IC50 [1] [µM] | increase in viability of 6-OHDA-treated cells [2] | IC50 [3] [µM] | increase in viability of rotenone-treated cells [4] | increase in viability of PQ-treated cells [5] | IC50 [6] [µM] | IC50 [9] [µM] | ROS Level, % of Control, Paraquat (PQ) [10] | other results
1 | C=CC(C)(C)c1[nH]c2cc(CC=C(C)C)ccc2c1/C=C1\NC(=O)[C@]2(C[C@H](C)C=C[C@@H]2/C=C/c2c(O)cc(CC=C(C)C)c(O)c2C=O)NC1=O [Compound 1a, (+)-Cryptoechinuline B] | 122 ± 7.1 | neuroprotective activity | > 100 | neuroprotective activity; also recorded: significant increases | neuroprotective activity | – | – | – | DPPH Scavenger Activity IC50 [1]: weak; viability at 10 µM ([2]; Mus musculus, N2a, read-out: increase in viability of 6-OHDA-treated cells): 40.7%
2 | C=CC(C)(C)c1[nH]c2cc(CC=C(C)C)ccc2c1/C=C1\NC(=O)[C@@]2(C[C@@H](C)C=C[C@H]2/C=C/c2c(O)cc(CC=C(C)C)c(O)c2C=O)NC1=O [Compound 1b, (−)-Cryptoechinuline B] | 118 ± 4.7 | inactive | > 100 | inactive | protected | – | – | – | DPPH Scavenger Activity IC50 [1]: weak
3 | C=CC(C)(C)c1[nH]c2ccccc2c1C=C1NC(=O)C2(CC(C)C=CC2C=Cc2c(O)cc(CC=C(C)C)c(O)c2C=O)NC1=O (centres unmarked) [Compound 2, cryptoechinuline D] | – | did not show any cytoprotective effects | > 100 | did not show any cytoprotective effects | did not show any cytoprotective effects | 23.6 | – | – | DPPH Scavenger Activity IC50 [6]: strong
4 | C=CC(C)(C)c1[nH]c2c(CC=C(C)C)cc(CC=C(C)C)cc2c1C[C@@H]1NC(=O)[C@H](C)NC1=O [Compound 3, echinulin] | – | – | > 100 | inactive | inactive | 29.9 | 25.9 | 90.3 ± 2.2 % of Control | IC50 [7]: 63.2 µM; IC50 [8]: 41.7 µM; IC50 [11]: 29.8 µM; antibacterial activity against Staphylococcus aureus [12]: antibacterial activity
5 | C=CC(C)(C)c1[nH]c2ccccc2c1/C=c1\[nH]c(=O)c(=C)[nH]c1=O [Compound 4, neoechinulin B] | – | – | 50.9 | cytoprotective activity; also recorded: significant increases | inactive | 34 | – | 101.8 ± 7.6 % of Control | cytotoxicity against RAW264.7 cells [13]: cytotoxic
6 | C=CC(C)(C)c1[nH]c2cc(CC=C(C)C)ccc2c1/C=c1\[nH]c(=O)c(=C)[nH]c1=O [Compound 5, neoechinulin C] | – | – | 40.6 | not active | protected | 31.1 | – | 97.4 ± 2.8 % of Control | –
7 | C=CC(C)(C)c1[nH]c2ccccc2c1/C=C1\NC(=O)C(=O)NC1=O [Compound 6, neoechinulin E] | – | – | – | significant increases | – | 46 | – | 94.1 ± 2.9 % of Control | IC50 [14]: > 100 µM
8 | C=CC(C)(C)c1[nH]c2cc(CC=C(C)C)ccc2c1/C=C1\NC(=O)C(=O)NC1=O [Compound 7, neoechinulin] | 62.6 ± 1.1 | – | > 100 | not active | inactive | – | 38.9 | – | IC50 [7]: 49.9 µM; IC50 [8]: 63.8 µM
9 | CC(=O)O[C@@]12CO[C@@H]1C[C@H](O)[C@@]1(C)C(=O)[C@H](O)C3=C(C)[C@@H](OC(=O)[C@H](O)[C@@H](NC(=O)OC(C)(C)C)c4ccccc4)C[C@@](O)([C@@H](OC(=O)c4ccccc4)[C@H]21)C3(C)C [Docetaxel, reference compound] | – | – | – | – | – | – | 0.004 | – | –
10 | NC(N)=S [Thiourea, reference compound] | – | – | – | – | – | – | – | – | IC50 ([11]; cell-free, 0.2-100.0 µM tested, pH 7.3-7.5, read-out: urease inhibition IC50): 23 µM
